According to patent US20230381168A1, “ADJUNCTIVE THERAPY FOR DEPRESSION” (ANeuroTech IP BV, priority 2020, published 2023):
“Also recorded” adds a separate entry of the source.

Experiments:
[1] = tested on: patients suffering from moderate to severe MDD; assay: double-blind randomized multi-centre study, reported side effects (treatment emergent adverse effects); format: in vivo, human
[2] = tested on: subjects with a medical history of major depressive disorder and current insomnia; assay: cognitive performance by Mini Mental State Examination (MMSE) in treated case subjects PT1-PT3; format: in vivo, human
Procedure: During the last three weeks of this period, the subject was treated with transcranial anodal direct current stimulation (tDCS) in daily sessions of 30 minutes in the morning every day of the week except Saturday and Sunday. The tDCS dose was 2 mA. The anode was placed over the left dorsolateral prefrontal cortex and the cathode was placed over the right dorsolateral prefrontal cortex. […] This combined treatment was continued for a following 3 weeks.

[3] = tested on: participants with major depressive disorder on continuing SSRI/SNRI; assay: placebo-controlled crossover study, Karolinska Sleepiness Scale; format: in vivo, human
Procedure: Participants randomized to receive Treatment B were administered placebo containing drinkable water with […] flavor. Each study week the participants received 10 mL of their study medication in an amber glass bottle with dropper containing 200 droplets. […] The sleepiness of the participants was also be measured using the Karolinska Sleepiness Scale going from very sleepy, having great difficulty staying awake, fighting sleep (9) to extremely alert (1). This questionnaire was completed in the morning, midday and evening.

[4] = tested on: participants with major depressive disorder on continuing SSRI/SNRI; assay: placebo-controlled crossover study, PROMIS cognitive function questionnaire (subjective cognitive function); format: in vivo, human
Procedure: Eligible participants were admitted to the study center on Day 1 of Period 1 for first dosing. […] The cognitive function was measured using the PROMIS cognitive function questionnaire, completed in the morning, midday and evening. […] A higher T-score reflects a better cognitive functioning of the participant. […] Positive responders were further evaluated for the key secondary objective.

[5] = tested on: participants with major depressive disorder on continuing SSRI/SNRI; assay: placebo-controlled crossover study, PROMIS Sleep-related impairments questionnaire; format: in vivo, human
Procedure: Participants randomized to receive Treatment B were administered placebo containing drinkable water with […] flavor. Each study week the participants received 10 mL of their study medication in an amber glass bottle with dropper containing 200 droplets. […] The sleep-related impairments were assessed using the PROMIS Sleep-related impairments questionnaire, completed in the morning, midday and evening. […] A higher T-score reflects more sleep-related impairments during the day.

D4 receptor = biological target: T1, D4 receptor (Homo sapiens, UniProt P21917); conditions: cited from earlier work
T1 sequence (P21917 1-419): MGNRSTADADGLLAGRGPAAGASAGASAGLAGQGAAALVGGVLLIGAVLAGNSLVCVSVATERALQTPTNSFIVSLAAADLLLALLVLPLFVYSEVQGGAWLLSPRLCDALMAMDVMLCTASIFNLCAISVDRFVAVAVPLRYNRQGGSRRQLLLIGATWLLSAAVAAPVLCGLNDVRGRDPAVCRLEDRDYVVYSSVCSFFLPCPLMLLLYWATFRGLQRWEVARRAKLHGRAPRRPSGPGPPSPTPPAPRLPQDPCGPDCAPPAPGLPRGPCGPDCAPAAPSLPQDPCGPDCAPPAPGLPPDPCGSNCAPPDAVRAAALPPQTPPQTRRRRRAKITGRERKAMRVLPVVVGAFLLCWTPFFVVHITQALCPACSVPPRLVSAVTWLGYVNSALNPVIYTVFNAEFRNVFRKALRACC

H1 receptor = H1 receptor (Homo sapiens, UniProt P35367); conditions: cited from earlier work
[6] = tested on: participants with major depressive disorder on continuing SSRI/SNRI; assay: placebo-controlled crossover study, sleep quality questionnaire; format: in vivo, human; conditions: all participants; 14 mg
Procedure: Participants randomized to receive Treatment B were administered placebo containing drinkable water with […] flavor. Each study week the participants received 10 mL of their study medication in an amber glass bottle with dropper containing 200 droplets. […] The sleep quality of the participants was measured using a scale going from very bad (1) to excellent (5). This questionnaire was only completed in the morning.

[7] = tested on: patients suffering from moderate to severe MDD; assay: double-blind randomized multi-centre study, MADRS assessed by the clinical rater; format: in vivo, human
Procedure: Cognitive enhancement and suicidal thoughts were evaluated respectively according to the Montgomery-Asberg Depression Rating Scale (MADRS) item 6 and item 10, after 10 weeks of study treatment as assessed by the clinical rater. […] Remission rate of reduced ability to read/communicate is defined as a MADRS Item 6 total score at Baseline (Day 1)>3 to (end of) Week 10≤3 at Week 10 as assessed by the clinical rater. […] Change from baseline in total score on MADRS after the indicated period of study treatment as assessed by the clinical rater. […] Remission is defined as a MADRS total score ≤10 at the indicated period as assessed by the clinical rater. An international, double-blind, centrally randomized (stratified), multi-centre study in more than 400 patients suffering from moderate to severe MDD in up to 40 sites in the USA was conducted. […] Study visits were conducted 1, 2, 3, 4, 6, 8 and 10 weeks after study treatment initiation. Possible withdrawal effects were assessed 1 week after study treatment withdrawal. After 2, 3, 4, 6, and 10 weeks, patients were evaluated.

[8] = tested on: MDD patients on antidepressant (partial responsive depression); assay: analysis of 62 MDD patients treated with adjunctive low-dose pipamperone; format: in vivo, human
[9] = tested on: participants with major depressive disorder on continuing SSRI/SNRI; assay: placebo-controlled crossover study, mood questionnaire; format: in vivo, human
Procedure: Participants randomized to receive Treatment B were administered placebo containing drinkable water with […] flavor. Each study week the participants received 10 mL of their study medication in an amber glass bottle with dropper containing 200 droplets. […] The mood of the participants was also be measured using a questionnaire which evaluated going from very happy, relaxed, excited, not worried and fearful at all (1) to very sad, not relaxed and excited at all, extremely worried and fearful (5). This questionnaire was completed in the morning and in the evening.

mACh receptors = conditions: cited from earlier work
[10] = tested on: subject with medical history of major depression and severe insomnia; assay: sleep analysis with full PSG battery (EEG, EMG, infra-red video and sound): clinical relevant restlessness events; format: in vivo, human; conditions: PT1, after 3 weeks pipamperone 20 mg/day with tDCS
Excerpt: While during sleep the subject had no own noise making behaviour with an observed stable background noise level of +/−40 dB in the room, during these events the subject produced clear-cut enhancement of noise in the room with acute values of more than 50 dB combined with observable muscle activity (as observed by the EMG pattern), a state of being awake (as observed by the EEG) and an agitated behaviour (as observed by the clinical inspection infra-red video images).

[11] = prematurely discontinued patients
[12] = in particular after 6 weeks, even more so after 10 weeks

Sequence of H1 receptor (P35367 whole entry): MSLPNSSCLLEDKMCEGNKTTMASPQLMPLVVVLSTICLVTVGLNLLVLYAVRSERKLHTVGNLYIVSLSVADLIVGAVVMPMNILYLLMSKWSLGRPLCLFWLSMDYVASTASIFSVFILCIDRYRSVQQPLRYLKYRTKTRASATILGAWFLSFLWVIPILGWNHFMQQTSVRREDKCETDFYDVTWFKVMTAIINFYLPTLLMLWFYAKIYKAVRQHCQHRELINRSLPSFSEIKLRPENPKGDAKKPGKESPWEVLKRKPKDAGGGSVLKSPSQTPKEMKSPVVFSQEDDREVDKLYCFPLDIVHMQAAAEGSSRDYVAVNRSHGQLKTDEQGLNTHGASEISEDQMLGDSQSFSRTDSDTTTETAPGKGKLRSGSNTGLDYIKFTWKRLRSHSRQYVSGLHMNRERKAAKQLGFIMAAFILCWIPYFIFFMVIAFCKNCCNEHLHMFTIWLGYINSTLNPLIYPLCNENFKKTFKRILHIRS

Compound: CN(C)CCCC1(c2ccc(F)cc2)OCc2cc(C#N)ccc21 (stereo not shown) [Citalopram, citalopram]
- Decreased Appetite ([1]; all patients): 5.7%
- Diarrhoea ([1]; all patients): 9.7%
- Nausea ([1]; all patients): 16%
- Somnolence ([1]; all patients): 11.4%
- Decreased Appetite [1, 11]: 9%
- Diarrhoea [1, 11]: 11%
- Nausea [1, 11]: 18%
- Somnolence [1, 11]: 16%
- Vomiting [1, 11]: 9%

Compound: NC(=O)C1(N2CCCCC2)CCN(CCCC(=O)c2ccc(F)cc2)CC1 [pipamperone, 1′-[3-(p-fluorobenzoyl)propyl]-[1,4′-bipiperidine]-4′-carboxamide]
- MMSE score ([2]; PT1, after 3 weeks pipamperone 20 mg/day combined with 15 sessions tDCS 2 mA, 27 before treatment): 30
- MMSE total score ([2]; PT1, another 2 months after tDCS was terminated, pipamperone 20 mg/d continued): 30 /30
- MMSE ([2]; PT2 (severe cognitive deterioration, 18/30 before), after 6 weeks of treatment): 17 /30
- MMSE ([2]; PT3 (28/30 before), after treatment): 30 /30
- restored cognitive performance ([2]; PT3, continuous (6 months) intake of low dose pipamperone): sustained
- Karolinska Sleepiness Scale, pipamperone 14 mg vs placebo [3]: no clear difference
- SUBJECTIVE COGNITIVE DECLINE: NON RESPONDER ([4]; 14 mg ad noctum add-on, 6 participants): 17%
- SUBJECTIVE COGNITIVE DECLINE: RESPONDER ([4]; 14 mg ad noctum add-on, 6 participants, Fisher exact test 0.0006, p<0.05): 50%
- subjective cognitive function versus placebo ([4]; 14 mg, 14 days, add-on to SSRI/SNRI): statistical significant (p<0.05) improvement
- improvement of cognitive functioning compared with placebo ([4]; the two participants with high MADRS item 6 score (XR0 and WL4), 14 mg): highest improvement
- Sleep-related impairments, pipamperone 14 mg vs placebo [5]: no clear difference
- affinity for the D4 receptor over the D2 receptor (D4 receptor): 15 fold
- affinity for the H1 receptor (H1 receptor): low and likely insignificant
- Decreased Appetite ([1]; all patients): 1.6%
- Diarrhoea ([1]; all patients): 0.5%
- Nausea ([1]; all patients): 7.7%
- Somnolence ([1]; all patients): 6.6%
- side effects overall (treatment emergent adverse effects, TEAE) compared to citalopram ([1]; all patients and prematurely discontinued patients): low amount of side effects
- Decreased Appetite [1, 11]: 0%
- Diarrhoea [1, 11]: 0%
- Nausea [1, 11]: 6%
- Somnolence [1, 11]: 8%
- Vomiting [1, 11]: 0%
- side effects in subjects who discontinued the trial prematurely [1, 11]: significantly fewer side effects
- sleep quality compared with placebo [6]: better quality of sleep
- cognitive enhancement rate (remission of reduced ability to read/communicate, MADRS item 6) compared to citalopram ([7]; after 10 weeks of treatment): superior
- cognitive function (MADRS item 6, change from baseline) compared to citalopram ([7]; after 10 weeks, 15 mg QD): Statistically significant superior effect; also recorded: statistically significant enhancement
- suicidal thoughts (MADRS item 10, change from baseline) compared to citalopram ([7]; after 10 weeks, 15 mg QD): Statistically significant superior effect; also recorded: significant reduction
- decrease of severity of major depressive disorder (MADRS total score) compared to citalopram [7, 12]: superior decrease
- proportion of patients in remission of major depressive disorder (MADRS total score ≤10) compared to citalopram [7, 12]: superior increase
- residual symptoms anhedonia and cognitive impairment ([8]; adjunctive 15 mg daily, MDD remittors): resolved
- patients still responding to adjunctive treatment ([8]; after at least more than 1 year of treatment, n=53 of 62): 85%
- tolerability of the treatment ([8]; long-term adjunctive treatment): extremely good tolerability
- patients in sustained remission ([8]; printed as 'of these responders', n=25): 40%
- cases that went into sustained remission after switch from existing adjunctive treatment ([8]; switched from quetiapine, amisulpride, risperidone or clozapine): 6 out of these 8 cases
- Mood, pipamperone 14 mg vs placebo [9]: no clear difference
- affinity for the mACh receptors (mACh receptors): low and likely insignificant
- insomnia [10]: improvement
- reduction of the clinical restlessness events [10]: 75%
- number of clinical restlessness events at night after treatment ([10]; 4 before): 1
